From US20200147039A1, “COMPOUNDS USEFUL IN INHIBITING HUMAN TREFOIL FACTOR 3” (NATIONAL UNIVERSITY OF SINGAPORE, priority 2017, published 2020)

What was measured:
MCF-7 = test: AlamarBlue cell viability assay, MCF7; type: cell-based, human
Text: (§1) (A) Inhibitory concentration 50% (IC50) values for compound 43 in the MC cell lines are tabulated, using an AlamarBlue™ cell viability assay as previously described in Pandey V et al., Breast Cancer Res. 2014; 16(5):429. (B) Measured dose-dependent manner effect of compound 43 on the viability of MC cells (left-side, TFF3-high and right, TFF3-low) using AlamarBlue™ viability assay as previously described (ibid). (C) Apoptotic cell death of mammary carcinoma cell lines measured after treatment with 10 μM compound 43 using flow cytometry analysis at 24 hour as described previously in Keerthy H K et al., PloS one. 2014; 9(9):e107118. Annexin V-FITC staining is indicated on the X-axis and PI staining on the Y-axis. […] Acquisition of Annexin V and PI data were represented as percentage (%) in each quadrant. Note: CM, conditioned media; MCF10A and MCF12A, non-transformed immortalized-mammary epithelial cell line. Points are mean of triplicate experiments; bars, ±SD. Statistical significance was assessed by using an unpaired two-tailed Student's t test (P<0.05 was considered as significant) using GraphPad Prism5. Columns are mean of triplicate experiments; bars, ±SD. **P<0.001, *P<0.05.
(§2) The human immortalized mammary epithelial cell lines, MCF10A, and MCF12A; and immortalized hepatocellular epithelial cell line, LO2 were obtained from the American Type Culture Collection (ATCC, Rockville, Md.) and were cultured as per ATCC propagation instructions. MC cell lines, MCF7, T47D, BT474, BT20, MDA-MB-361, MDA-MB-436, MDA-MB-468, and MDA-MB-231; endometrial carcinoma cell lines, Ishikawa, ECC1, RL95-2 and AN3; hepatocellular carcinoma cell lines, Hep3B, H2P, and H2M; colon carcinoma cell lines, DLD-1, and Caco-2; and prostate carcinoma cell lines, PC3, LNCaP, and DU145 were obtained from the American Type Culture Collection (ATCC, Rockville, Md.). Pancreatic carcinoma cell lines, AsPC-1 and BxPC-3; Lung carcinoma cell lines, HCC-827, NCI-H1975, HCC-4006, PC-14, and NCI-H1299; and Thyroid carcinoma cell lines HTH83, CAL62, T238, and OGK-M were obtained from Prof. H. Phillip Koeffler's laboratory at The Cancer Science Institute of Singapore, National University of Singapore (NUS). Gastric carcinoma cell lines, AGS, MKN-28, MKN-45, and A2-528 were obtained from Prof. Yoshiaki Ito's laboratory at The Cancer Science Institute of Singapore, NUS. All cell lines were cultured as per ATCC propagation instructions.
The above synthesised compounds were initially evaluated against a range of carcinoma cells using an AlamarBlue™ cell viability assay (using the protocol discussed above). The tested compounds were generally efficacious at reducing the viability of various carcinoma cells compared to vehicle (DMSO) treated cells. Table 8 provides selected IC50 data for certain of the compounds synthesised herein against MCF-7.
In table 9 IC50 values of compound 43 compound library in several cancer cell lines are tabulated, using an AlamarBlue® cell viability assay as previously described in Pandey V et al., Breast Cancer Res. 2014; 16(5):429. Statistical analysis was assessed by using GraphPad Prism5. Note: NV, no value.

BT474 = test: AlamarBlue cell viability assay, BT474; type: cell-based; conditions: Homo sapiens, BT-474, Mammary
Text: as §1, with “Columns are mean of triplicate experiments; bars, ±SD. **P<0.001, *P<0.05.” left out
(§3) In table 9 IC50 values of compound 43 compound library in several cancer cell lines are tabulated, using an AlamarBlue® cell viability assay as previously described in Pandey V et al., Breast Cancer Res. 2014; 16(5):429. Statistical analysis was assessed by using GraphPad Prism5. […]

HCC827 = test: AlamarBlue cell viability assay, HCC827; type: cell-based; conditions: Homo sapiens, Lung
Method: as §2, with “Yoshiaki Ito's laboratory at The Cancer Science Institute of Singapore, NUS. All cell lines were cultured as per ATCC propagation instructions.” left out
as §3

H1975 = test: AlamarBlue cell viability assay, H1975; type: cell-based; conditions: Homo sapiens, NCI-H1975, Lung
Method: as §2, with “Yoshiaki Ito's laboratory at The Cancer Science Institute of Singapore, NUS. All cell lines were cultured as per ATCC propagation instructions.” left out
as §3

H2P = test: AlamarBlue cell viability assay, H2P; type: cell-based; conditions: Homo sapiens, Hepatocellular
Method: as §2, with “Yoshiaki Ito's laboratory at The Cancer Science Institute of Singapore, NUS. All cell lines were cultured as per ATCC propagation instructions.” left out
as §3

H2M = test: AlamarBlue cell viability assay, H2M; type: cell-based; conditions: Homo sapiens, Hepatocellular
Method: as §2, with “Yoshiaki Ito's laboratory at The Cancer Science Institute of Singapore, NUS. All cell lines were cultured as per ATCC propagation instructions.” left out
as §3

DU145 = test: AlamarBlue cell viability assay, DU145; type: cell-based; conditions: Homo sapiens, DU-145, Prostate
Method: as §2, with “Yoshiaki Ito's laboratory at The Cancer Science Institute of Singapore, NUS. All cell lines were cultured as per ATCC propagation instructions.” left out
as §3

AsPC-1 = test: AlamarBlue cell viability assay, AsPC-1; type: cell-based; conditions: Homo sapiens, ASPC1, Pancreatic
Method: as §2, with “Yoshiaki Ito's laboratory at The Cancer Science Institute of Singapore, NUS. All cell lines were cultured as per ATCC propagation instructions.” left out
as §3

T238 = test: AlamarBlue cell viability assay, T238; type: cell-based; conditions: Homo sapiens, Thyroid
Method: as §2, with “Yoshiaki Ito's laboratory at The Cancer Science Institute of Singapore, NUS. All cell lines were cultured as per ATCC propagation instructions.” left out
as §3

A2-528 = test: AlamarBlue cell viability assay, A2-528; type: cell-based; conditions: Homo sapiens, Gastric
Method: as §2, with “Yoshiaki Ito's laboratory at The Cancer Science Institute of Singapore, NUS. All cell lines were cultured as per ATCC propagation instructions.” left out
as §3

[1] = system: MCF7 cells with forced expression of TFF3; test: MCF7 cells with forced expression of TFF3: western blot, cell viability, caspase 3/7 (FIG. 5); type: cell-based, human; conditions: MCF7 cells with forced expression of TFF3, 5 μM
Method: (A) Western blot analysis was used to assess the levels of pSTAT3, STAT3, BCL2, and CCND1 protein in MCF7 cells with forced expression of TFF3 after treatment with compound 43 (5 μM) and Stattic (2 μM) was used to treat cells. Depletion of STAT3 expression was achieved using transient-transfection of small interfering (si)-RNA (Invitrogen, Singapore) directed to STAT3 transcript as previously described in Pandey V et al., Breast Cancer Res. 2014; 16(5):429. Anti-TFF3 polyclonal antibody was used as previously described (ibid). Soluble whole cell extracts were run on a SDS-PAGE and immunoblotted as previously described (ibid). β-ACTIN was used as input control for cell lysate. The sizes of detected protein bands in kDa are shown on the right side (B) Cell viability and (C) caspase 3/7 activities in MCF7 cells with forced expression of TFF3 after treatment with compound 43 (5 μM) and Stattic (2 μM) was used to treat cells. […] Evaluated using ApoTox-Glo™ Triplex Assay Kit, Promega (Singapore) according to manufacturer's instructions. Cell viability fluorescence is measured at 400Ex/505Em, while apoptosis (caspase 3/7 activities) is determined with the luminescence measurement. […] Statistical significance was assessed by using an unpaired two-tailed Student's t test (P<0.05 was considered as significant) using GraphPad Prism5. […]

With `Cc1cc(-c2ccc(C3C(C#N)=C(N)Oc4c3c(=O)oc3ccccc43)cc2)cnc1F` (stereo not shown) [Compound 43, 2-Amino-4-(4-(6-fluoro-5-methylpyridin-3-yl)phenyl)-5-oxo-4H,5H-pyrano[3,2-c]chromene-3-carbonitrile] the IC50 (MCF-7; Homo sapiens, MCF7, MCF-7, AlamarBlue cell viability (Table 8)) was 3.21 µM, the IC50 (MCF-7; Homo sapiens, MCF7, Mammary, MCF7) was 3.21 µM and the IC50 (MCF-7; MCF-7, AlamarBlue cell viability (Table 8)) was 4.51 µM. The IC50 (BT474) was 2.69 µM, the IC50 (HCC827) was 0.93 µM and the IC50 (H1975) was 11.8 µM. It also gave an IC50 (H2P) of 11.3 µM, an IC50 (H2M) of 7.86 µM and an IC50 (DU145) of 1.91 µM. For the same compound, the IC50 (AsPC-1) was 4.41 µM, the IC50 (T238) was 185 µM and the IC50 (A2-528) was 34.1 µM. For the same compound, the TFF3-stimulated effects [1] was “reverted”.
